Data from patent US12389911B2, “Benzimidazole compound or salt thereof, agricultural and horticultural insecticidal and acaricidal agent containing said compound, and method for using same” (NIHON NOHYAKU CO., LTD., priority 2019, dated 2025).

Tested on: Two-spotted spider mite (Tetranychus urticae)
Test: Acaricidal action on two-spotted spider mite (kidney bean leaf disk spray)
Type: in vivo
Conditions: 500 ppm, adult females, 25° C., two days after treatment
Procedure: Acaricidal Action on Two-Spotted Spider Mite (Tetranychus urticae)
Leaf disk having a diameter of 2 cm was prepared by leaves of kidney bean, and the leaf disk was placed on the wetted filter paper. Adult hens of two-spotted spider mite were inoculated on the wetted filter paper, and then 50 ml of an agrochemical dispersion, prepared by diluting a formulation containing the benzimidazole compound represented by the general formula (1) of the present invention or salt thereof as an active ingredient to adjust each of the concentrations to 500 ppm, was sprayed on turntable uniformly. After the spraying, it was allowed to stand in a thermostatic chamber at 25° C. Two days after the treatment of an agrochemical dispersion, the dead mites were counted, the corrected mortality rate was calculated according to the formula shown below, and the acaricidal efficacy was evaluated according to the criteria of Test Example 2. This test was conducted in duplicate using 10 adult hens of two-spotted spider per plot. Corrected mortality(%)=(Number of dead mites in a non-treatment plot−Number of dead mites in a treatment plot)/(Number of dead mites in a non-treatment plot)×100 [Expression 4]

Row | Structure (SMILES) | acaricidal efficacy (corrected mortality rate), activity level
1 | CCS(=O)(=O)n1c(-n2cc(C(=O)OC(C)(C)C)c(C(=O)OC(C)(C)C)n2)nc2ccccc21 [Compound 2-62] | D or higher
2 | CCCc1nn(-c2nc3ccccc3n2S(=O)(=O)CC)cc1C(=O)OC(C)(C)C [Compound 2-72] | D or higher
3 | CCOc1nn(-c2nc3ccccc3n2S(=O)(=O)CC)cc1C(=O)OC(C)(C)C [Compound 2-73] | D or higher
4 | CCCOc1nn(-c2nc3ccccc3n2S(=O)(=O)CC)cc1C(=O)OC(C)(C)C [Compound 2-74] | D or higher
5 | CCS(=O)(=O)n1c(-n2cc(C(=O)OC(C)(C)C)c(OCC(F)(F)F)n2)nc2ccccc21 [Compound 2-76] | D or higher
6 | CCS(=O)(=O)n1c(-n2cc(C(=O)OC(C)(C)C)c(OCC(F)F)n2)nc2ccccc21 [Compound 2-77] | D or higher
7 | CCS(=O)(=O)n1c(-n2cc(C(=O)OC(C)(C)C)c(OCC(F)(F)C(F)F)n2)nc2ccccc21 [Compound 2-78] | D or higher
8 | CCS(=O)(=O)n1c(-n2cc(C(=O)OC)c(C(C)(C)C)n2)nc2ccccc21 [Compound 2-79] | D or higher
9 | CCOC(=O)c1cn(-c2nc3ccccc3n2S(=O)(=O)CC)nc1/C=C/C1CC1 [Compound 2-80] | D or higher
10 | CCOC(=O)c1cn(-c2nc3ccccc3n2S(=O)(=O)CC)nc1I [Compound 2-81] | D or higher
11 | CCS(=O)(=O)n1c(-n2cc(C(=O)OC(C)(C)C)c(I)n2)nc2ccccc21 [Compound 2-82] | D or higher
12 | CCS(=O)(=O)n1c(-n2cc(C(=O)OC(C)(C)C)c(/C=C/C3CC3)n2)nc2ccccc21 [Compound 2-83] | D or higher
13 | CCS(=O)(=O)n1c(-n2cc(C(=O)OC(C)(C)C)c(CCC3CC3)n2)nc2ccccc21 [Compound 2-84] | D or higher
14 | CCCCCc1nn(-c2nc3ccccc3n2S(=O)(=O)CC)cc1C(=O)OC(C)(C)C [Compound 2-85] | D or higher
15 | CCS(=O)(=O)n1c(-n2cc(C(=O)OC(C)(C)C)c(C=C(C)C)n2)nc2ccccc21 [Compound 2-86] | D or higher
16 | CCS(=O)(=O)n1c(-n2cc(C(=O)OC(C)(C)C)c(CC(C)C)n2)nc2ccccc21 [Compound 2-87] | D or higher
17 | CCS(=O)(=O)n1c(-n2cc(C(=O)OC(C)(C)C)c(C#Cc3ccccc3)n2)nc2ccccc21 [Compound 2-88] | D or higher
18 | CCS(=O)(=O)n1c(-n2cc(C(=O)OC(C)(C)C)c(CCc3ccccc3)n2)nc2ccccc21 [Compound 2-89] | D or higher
19 | CCS(=O)(=O)n1c(-n2cc(C(=O)OC(C)(C)C)c(C(F)(F)C(F)(F)F)n2)nc2ccccc21 [Compound 2-90] | D or higher
20 | CCS(=O)(=O)n1c(-n2nc(COC(C)(C)C)c(C(=O)OC(C)(C)C)c2C)nc2ccccc21 [Compound 2-91] | D or higher
21 | C#CCOc1nn(-c2nc3ccccc3n2S(=O)(=O)CC)cc1C(=O)OC(C)(C)C [Compound 2-92] | D or higher
22 | CCS(=O)(=O)n1c(-n2cc(C(=O)OC(C(F)(F)F)C(F)(F)F)cn2)nc2ccccc21 [Compound 2-93] | D or higher

Row | Structure (SMILES) | acaricidal efficacy (corrected mortality rate), activity level
23 | CCS(=O)(=O)n1c(-n2cc(C(=O)NCC(F)(F)F)c(C(C)(C)C)n2)nc2ccccc21 [Compound 2-94] | D or higher
24 | CCS(=O)(=O)n1c(-n2cc(C(=O)NCC(F)(F)F)c(C(=O)NCC(F)(F)F)n2)nc2ccccc21 [Compound 2-95] | D or higher
25 | CCS(=O)(=O)n1c(-n2cc(C(=O)NC3CC3)c(C(C)(C)C)n2)nc2ccccc21 [Compound 2-96] | D or higher
26 | CCS(=O)(=O)n1c(-n2cc(C(=O)NC(C)(C)C)c(C(C)(C)C)n2)nc2ccccc21 [Compound 2-97] | D or higher
27 | CCS(=O)(=O)n1c(-n2cc(C(=O)N(C)C(C)(C)C)c(C(=O)N(C)C(C)(C)C)n2)nc2ccccc21 [Compound 2-98] | D or higher
28 | CCS(=O)(=O)n1c(-n2cc(C#N)c(C(C)(C)C)n2)nc2ccccc21 [Compound 2-99] | D or higher
29 | CCS(=O)(=O)n1c(-n2cc(C#Cc3ccccc3)c(OCC(F)(F)F)n2)nc2ccccc21 [Compound 2-100] | D or higher
30 | CCS(=O)(=O)n1c(-n2cc(CCc3ccccc3)c(OCC(F)(F)F)n2)nc2ccccc21 [Compound 2-101] | D or higher
31 | CCS(=O)(=O)n1c(-n2cc(CCC(=O)OC(C)(C)C)c(OCC(F)(F)F)n2)nc2ccccc21 [Compound 2-102] | D or higher
32 | CCS(=O)(=O)n1c(-n2ccc(OCCCC(=O)OC(C)(C)C)n2)nc2ccccc21 [Compound 2-103] | D or higher
33 | CCS(=O)(=O)n1c(-n2cc(I)c(C(=O)OC(C)(C)C)n2)nc2ccccc21 [Compound 2-104] | D or higher
34 | CCS(=O)(=O)n1c(-n2cc(C3CC3)c(C(=O)OC(C)(C)C)n2)nc2ccccc21 [Compound 2-105] | D or higher
35 | CCS(=O)(=O)n1c(-n2cc(C#Cc3ccccc3)c(C(=O)OC(C)(C)C)n2)nc2ccccc21 [Compound 2-106] | D or higher
36 | CCS(=O)(=O)n1c(-n2cc(CCc3ccccc3)c(C(=O)OC(C)(C)C)n2)nc2ccccc21 [Compound 2-107] | D or higher
37 | CCS(=O)(=O)n1c(-n2cc(C#N)c(C(=O)OC(C)(C)C)n2)nc2ccccc21 [Compound 2-108] | D or higher
38 | CCS(=O)(=O)n1c(-n2cc(CCc3ccccc3)c(C#N)n2)nc2ccccc21 [Compound 2-109] | D or higher
39 | C#Cc1cn(-c2nc3ccccc3n2S(=O)(=O)CC)nc1C(F)(F)F [Compound 2-110] | D or higher
40 | CCS(=O)(=O)n1c(-n2cc(C#N)c(C(F)(F)C(F)(F)F)n2)nc2ccccc21 [Compound 2-111] | D or higher
41 | CCS(=O)(=O)n1c(-n2cc(/C=C/C(=O)OC(C(F)(F)F)C(F)(F)F)c(C(F)(F)F)n2)nc2ccccc21 [Compound 2-112] | D or higher
42 | CCS(=O)(=O)n1c(-n2cc(/C=C/C(=O)OCC(C)(C)C)c(C(F)(F)F)n2)nc2ccccc21 [Compound 2-113] | D or higher
43 | CCS(=O)(=O)n1c(-n2cc(/C=C/C(=O)OCc3ccc(C(C)(C)C)cc3)c(C(F)(F)F)n2)nc2ccccc21 [Compound 2-114] | D or higher
